Source: patent US20260373165A1, “PHARMACEUTICAL COMBINATIONS AND COMPOSITIONS, AND METHODS OF USE THEREOF” (SHENZHEN HIGHTIDE BIOPHARMACEUTICAL LTD., priority 2022, published 2026)
Entries after “also recorded” stand apart in the source; their conditions may differ.

Legend:
Type in all cases: in vivo, mouse (C57BL/6J male, 60% HFD DIO)
[1] = Example 2: body weight and body weight change rate, combined administration of HTD1801 and dapagliflozin or empagliflozin in DIO obesity model; details: HTD1801 250 mpk, dapagliflozin 10 mpk, empagliflozin 15 mpk p.o. QD, semaglutide 10 nmol/kg s.c. Q3D
Source text: (§1) After 5-6-week-old C57BL/6J male mice were acclimatized for 1 week, the weight of each mouse was weighed, and the mice were randomly divided into a control group and a model group by taking the weight as a main index, where 12 mice in the control group were fed with common feed (CD), and the mice in the remaining model group were fed with 60% high-fat feed (60% HFD) for 10-12 weeks to construct a DIO obesity model, with the average body weight being not less than 40 g. The mice fed with 60% HFD were grabbed and acclimatized with a solvent for 3 days, where the acclimatization with a solvent was performed by oral gavage of 0.5% CMC-Na, once daily.
(§2) The food intake, the body weight, the body fat ratio, and the insulin level of the mice were respectively measured, followed by fasting blood glucose level, and the mice were randomly grouped according to Table 12 by taking the body weight as an index, and the remaining ungrouped mice were euthanized. After grouping, each group of mice was administered according to Table 12, the day of administration was defined as DO, and the administration volume of each drug was determined based on the results obtained by the calculation of 5 μL/g× mouse body weight (g).
(§3) For the combined administration group, the administration sequence and the administration time were kept consistent at each administration. The mice were continuously fed with high-fat feed during the administration period until the administration was finished. During administration, 1 food intake was measured per week (difference in feed weights at an interval of 24 h was measured); each group of mice was weighed once daily; blood was collected from the tail tip on day 16 and day 30, respectively, so as to measure fasting blood glucose levels once (blood was collected after fasting from 9:00 am to 3:[…]); on day 24 of administration (D23), the body fat ratio and the lean mass of each group of mice were measured by MRI (the measurement period was kept consistent with that before grouping); after 25 days of administration intervention (day 24), each group of mice was fasted for 6 h and subjected to OGTT (0 min, 15 min, 30 min, 60 min, 90 min, 120 min) to detect their blood glucose levels; after 29 days of administration intervention (day 28), each group of mice was fasted for 6 h and subjected to OGTT (0 min, 15 min, 30 min, 60 min, 90 min, 120 min), and meanwhile subjected to blood sampling via submaxillary vein (0 min, 15 min, 30 min, about 30 μL of blood sampled each time), and then the blood plasma was separated for detecting the insulin level by ELISA, where the separated blood plasma was more than 10 μL; the next day (D30) at the end of administration was set as the test endpoint, and the mice were fasted for 6 h in the morning and subjected to fasting blood glucose level measurement; subsequently, the mice were euthanized with CO2, blood was collected from the heart of each mouse for analysis, and each group of mice was dissected; the liver and subcutaneous, epididymal and mesenteric fat was collected, photographed and weighed, respectively.

[2] = Example 2: lean mass by MRI on day 23
Source text: as §1, §2, §3
The body weight, the lean mass and the lean ratio of each animal in groups G1 to G8 were measured on day 23 and averaged for each group, and the results are shown in Table 16 below, and FIGS. 23 and 24.

[3] = Example 2: body fat mass by MRI on day 23
Source text: as §1, §2, §3
The body weight, the body fat mass and the body fat ratio of each animal in groups G1 to G8 were measured on day 23 and averaged for each group, and the results are shown in Table 15 below, and FIGS. 21 and 22.

[4] = mean, day 23, HTD1801 250 mpk, dapagliflozin 10 mpk, empagliflozin 15 mpk p.o. QD

Compound: OC[C@H]1O[C@@H](c2ccc(Cl)c(Cc3ccc(O[C@H]4CCOC4)cc3)c2)[C@H](O)[C@@H](O)[C@@H]1O [Empagliflozin, empagliflozin]
- body weight change / weight loss effect (in words) [1]: basically kept unchanged; also recorded: could not achieve the weight loss effect
- Body weight (mean) ([1]; day 0 (baseline)): 46.2 g
- Body weight change rate ([1]; day 0 (baseline)): 0.0%
- Body weight (mean) ([1]; day 1): 46.3 g
- Body weight change rate ([1]; day 1): 0.4%
- Body weight (mean) ([1]; day 2): 46.1 g
- Body weight change rate ([1]; day 2): −0.2%
- Body weight (mean) ([1]; day 3): 46.0 g
- Body weight change rate ([1]; day 3): −0.3%
- Body weight (mean) ([1]; day 4): 46.0 g
- Body weight change rate ([1]; day 4): −0.5%
- Body weight (mean) ([1]; day 5): 45.6 g
- Body weight change rate ([1]; day 5): −1.3%
- Body weight (mean) ([1]; day 6): 45.8 g
- Body weight change rate ([1]; day 6): −0.8%
- Body weight (mean) ([1]; day 7): 46.0 g
- Body weight change rate ([1]; day 7): −0.4%
- Body weight (mean) ([1]; day 8): 45.6 g
- Body weight change rate ([1]; day 8): −1.2%
- Body weight (mean) ([1]; day 9): 45.5 g
- Body weight change rate ([1]; day 9): −1.5%
- Body weight (mean) ([1]; day 10): 45.4 g
- Body weight change rate ([1]; day 10): −1.7%
- Body weight (mean) ([1]; day 11): 45.6 g
- Body weight change rate ([1]; day 11): −1.2%
- Body weight (mean) ([1]; day 12): 45.5 g
- Body weight change rate ([1]; day 12): −1.6%
- Body weight (mean) ([1]; day 13): 45.3 g
- Body weight change rate ([1]; day 13): −1.9%
- Body weight (mean) ([1]; day 14): 45.6 g
- Body weight change rate ([1]; day 14): −1.3%
- Body weight (mean) ([1]; day 15): 45.6 g
- Body weight change rate ([1]; day 15): −1.4%
- Body weight (mean) ([1]; day 16): 45.3 g
- Body weight change rate ([1]; day 16): −1.9%
- Body weight (mean) ([1]; day 17): 45.7 g
- Body weight change rate ([1]; day 17): −1.1%
- Body weight (mean) ([1]; day 18): 45.7 g
- Body weight change rate ([1]; day 18): −1.0%
- Body weight (mean) ([1]; day 19): 45.7 g
- Body weight change rate ([1]; day 19): −1.2%
- Body weight (mean) ([1]; day 20): 45.8 g
- Body weight change rate ([1]; day 20): −0.8%
- Body weight (mean) ([1]; day 21): 46.0 g
- Body weight change rate ([1]; day 21): −0.4%
- Body weight (mean) ([1]; day 22): 46.2 g
- Body weight change rate ([1]; day 22): −0.1%
- Body weight (mean) ([1]; day 23): 46.1 g
- Body weight change rate ([1]; day 23): −0.1%
- Body weight (mean) ([1]; day 24): 45.7 g
- Body weight change rate ([1]; day 24): −1.1%
- Body weight (mean) ([1]; day 25): 46.0 g
- Body weight change rate ([1]; day 25): −0.4%
- Body weight (mean) ([1]; day 26): 46.6 g
- Body weight change rate ([1]; day 26): 0.9%
- Body weight (mean) ([1]; day 27): 46.5 g
- Body weight change rate ([1]; day 27): 0.7%
- Body weight (mean) ([1]; day 28): 46.0 g
- Body weight change rate ([1]; day 28): −0.4%
- Body weight (mean) ([1]; day 29): 46.5 g
- Body weight change rate ([1]; day 29): 0.8%
- lean ratio (in words) ([2]; day 23, relative to model control group G2): slightly decreased
- Body weight ([2]; mean, day 23 (Table 16), HTD1801 250 mpk, dapagliflozin 10 mpk, empagliflozin 15 mpk p.o. QD): 46.8 g
- Lean (lean mass) [2, 4]: 4.2 g
- Lean ratio [2, 4]: 9.1%
- body fat mass and body fat ratio (in words) ([3]; day 23, relative to control group G2): increased
- Body weight ([3]; mean, day 23 (Table 15), HTD1801 250 mpk, dapagliflozin 10 mpk, empagliflozin 15 mpk p.o. QD): 46.8 g
- Body fat ratio [3, 4]: 49.3%
- Fat (body fat mass) [3, 4]: 23.0 g
